Entries after “also recorded” stand apart in the source; their conditions may differ.

The results in this text go back to publication PMC13385394, “Cryo-EM Structure of the TRPC1/5 Heteromer Enables Design of Antidepressant and Anxiolytic Drug with Reduced Side Effects” (Nature Communications, 2026).

In one data set the test system is healthy C57BL/6J mice. The note with it: mouse, in vivo.
Data set [1] has as its system diet-induced obesity (DIO) mice. Briefly: Diet-induced obesity (DIO) model, body weight and food intake. Type of data set: in vivo, mouse. The note with it: 11 days once daily, HC-070 and JD03-02 10 mg/kg i.g., Semaglutide 0.123 mg/kg s.c. The method, then:
A maximum of five mice were housed per cage during the acclimatization period, and three mice per cage during the experimental period. […] The day of administration was defined as day 1 (D1) of the experiment, with a single dose/day administered for 11 consecutive days. Daily observations were made on the animals’ general condition. Body weight was measured on days 1, 3, 5, 7, 9, and 11 post-administrations. Food intake was measured on days 1, 3, 5, 7, and 9 post-administrations by calculating the difference between the amount of food provided and the amount remaining in the cage, divided by the number of animals in the cage to determine the average food intake per mouse. The cumulative food intake during the experiment was calculated by summing the food intake measurements taken on different days.

Another data set deals with mCPP-induced anxiety. Description: Open-field test (OFT), mCPP-induced anxiety model. The note with it: mCPP-induced anxiety-like mice; single dose.
In data set [2] the test system is CUMS-induced depressive-like behaviors. Briefly: Forced swim test (FST) in CUMS model. It is filed as in vivo, mouse. The note with it: CUMS mice; 14 days once-daily oral; vs vehicle. The method, then:
The stressors included food and water deprivation, foot shock, wet bedding, cage tilting, restraint, shaking, and olfactory stimulation. These seven stressors were randomly applied each week to ensure unpredictability. The stress induction was maintained continuously for 28 days. Following model establishment, the tail suspension test (TST) was performed to confirm the successful induction of depressive-like behaviors. Mice that met the criteria were randomly assigned to experimental groups. Chronic Treatment: Mice were treated daily for 14 consecutive days. The SPT was conducted on day 11, and the forced swimming test (FST) was performed on day 14.

For data set [3] the test system is unchanged. Description: Sucrose preference test (SPT) in CUMS model. The note with it: CUMS mice. Type of data set: in vivo, mouse. As for the experimental part:
The stressors included food and water deprivation, foot shock, wet bedding, cage tilting, restraint, shaking, and olfactory stimulation. These seven stressors were randomly applied each week to ensure unpredictability. The stress induction was maintained continuously for 28 days. Following model establishment, the tail suspension test (TST) was performed to confirm the successful induction of depressive-like behaviors. Mice that met the criteria were randomly assigned to experimental groups.
Acute Treatment: A single dose of the test compound was administered, followed by the sucrose preference test (SPT).
Chronic Treatment: Mice were treated daily for 14 consecutive days. The SPT was conducted on day 11, and the forced swimming test (FST) was performed on day 14.
Mice were acclimated to 1% sucrose solution and plain water for 2 days. On the second day, the positions of the sucrose solution and water were swapped to eliminate positional bias. […] Mice were provided with pre-weighed 1% sucrose solution and plain water. […] Sucrose preference (%) was calculated as Sucrose Preference = A/(A + B)×100.

Data set [4] deals with the molecule itself. Description: cryo-EM structure; TRPC1/5 heteromer co-expressed, purified in tandem on Strep-Tactin and anti-Flag M2 resin and Superose 6 (25 mM Hepes pH 7.5, 150 mM NaCl, 1 mM DTT, LMNG/CHS/GDN); single-particle cryo-EM, 2.84 Å overall.

Method for healthy C57BL/6J mice: The Open-Field test (OFT) was utilized to evaluate the autonomous behavior, exploratory tendencies, and anxiety levels of experimental animals in a new environment. Each mouse was placed at the center of the container and given a 10-min exploration period. Before the test, the animals were acclimated to the experimental setting for 60 min. […] This cleaning procedure aimed to reduce the risk of contamination and prevent any misleading experimental results due to olfactory stimuli. Anxiety levels and exploratory behavior were assessed by measuring the time spent in the central area, the number of entries into the central area, and the total distance traveled by the mice.

Take `Cn1c(=O)n(CCCO)c(=O)c2c1nc(Oc1cccc(Cl)c1)n2Cc1ccc(Cl)cc1` [HC-070]: the “OFT total distance traveled” value in the data set on healthy C57BL/6J mice is reported as “increased total distance traveled”. Moreover, in data set [1], the body weight entry is on record as “significantly increased body weight” and the food intake result is recorded as “elevated food intake”.
For the molecule `CN1C(=O)CN=C(c2ccccc2)c2cc(Cl)ccc21` [diazepam, reference compound], in the data set with mCPP-induced anxiety, the “OFT total distance traveled” value was “no significant effect”.
On to `CNCCC(Oc1ccc(C(F)(F)F)cc1)c1ccccc1` (stereo not shown) [fluoxetine, reference compound], for which the “immobility (FST), repeated dosing” value in data set [2] is on record as “reduced immobility”. Besides, the “sucrose intake (SPT), repeated dosing” value in data set [3] (11 days once-daily oral, vs vehicle) is given as “significantly improved sucrose intake”. In addition, the “sucrose preference (SPT), single dose” value in data set [3] (single oral dose, JD03-02 30 mg/kg) was “no immediate effect; also recorded: ineffective”.
For the molecule Semaglutide [reference compound], in data set [1], the body weight entry was “effectively reduced both weight and appetite”; the food intake result was “effectively reduced both weight and appetite”.

B1: C-terminal truncated (210 residues) mouse TRPC5 with triple Flag tag and MBP on its N terminus (domain or fragment, UniProt Q9QX29 1-765, looked up)
chain: MAQLYYKKVNYSPYRDRIPLQIVRAETELSAEEKAFLSAVEKGDYATVKQALQEAEIYYNVNINCMDPLGRSALLIAIENENLEIMELLLNHSVYVGDALLYAIRKEVVGAVELLLSYRKPSGEKQVPTLMMDTQFSEFTPDITPIMLAAHTNNYEIIKLLVQKRVTIPRPHQIRCNCVECVSSSEVDSLRHSRSRLNIYKALASPSLIALSSEDPILTAFRLGWELKELSKVENEFKAEYEELSQQCKLFAKDLLDQARSSRELEIILNHRDDHSEELDPQKYHDLAKLKVAIKYHQKEFVAQPNCQQLLATLWYDGFPGWRRKHWVVKLLTCMTIGFLFPMLSIAYLISPRSNLGLFIKKPFIKFICHTASYLTFLFMLLLASQHIVRTDLHVQGPPPTVVEWMILPWVLGFIWGEIKEMWDGGFTEYIHDWWNLMDFAMNSLYLATISLKIVAYVKYNGSRPREEWEMWHPTLIAEALFAISNILSSLRLISLFTANSHLGPLQISLGRMLLDILKFLFIYCLVLLAFANGLNQLYFYYETRAIDEPNNCKGIRCEKQNNAFSTLFETLQSLFWSVFGLLNLYVTNVKARHEFTEFVGATMFGTYNVISLVVLLNMLIAMMNNSYQLIADHADIEWKFARTKLWMSYFDEGGTLPPPFNIIPSPKSFLYLGNWFNNTFCPKRDPDGRRRRHNLRSFTERHADSLIQNQHYQEVIRNLVKRYVAAMIRNSKTNEGLTEENFKELKQDISSFRYEVLDLLGNRK
notes: TRPC5, mouse, lacking the 210 C-terminal residues; Three copies of this chain stand in the heterotetramer with one TRPC1 subunit; The results call the complex 'human TRPC1/5' although the TRPC5 construct is mouse; also called Cryo-TRPC5; truncated mTRPC5; not shown: triple Flag, N-terminal, kept
In the case of B1, in data set [4], the binding result is “binds”.
